The values that follow come from patent US6150359A, “Naphthyridinones for inhibiting protein tyrosine kinase and cell cycle kinase mediated cellular proliferation” (Warner-Lambert Company, priority 2000, dated 2000).

Format in all cases: biochemical
For one assay, the target named is T1, c-Src (Homo sapiens, UniProt P12931).
T1 construct: made in house; host or cells: baculovirus infected insect cells
The assay can be described thus: c-Src kinase assay, 32P incorporation into polyglutamate-tyrosine. As to conditions: 5 μM ATP. The procedure: (§1) Other Kinases. c-Src kinase is purified from baculovirus infected insect cell lysates using an antipeptide monoclonal antibody directed against the N-terminal 2-17 amino acids as described previously by Fry, et al., Anticancer Drug Design, 1994;9:331-351. Protein kinase C (PKC.) is obtained as a rat brain preparation from Promega.
c-Src. The antibody, covalently linked to 0.65-μm latex beads, is added to a suspension of insect cell lysis buffer comprised of 150 mM NaCl, 50 mM Tris pH 7.5, 1 mM DTT, 1% NP-40, 2 mM EGTA, 1 mM sodium vanadate, 1 mM PMSF, 1 μg/mL each of leupeptin, pepstatin, and aprotinin. Insect cell lysate containing the c-Src protein is incubated with these beads for 3 to 4 hours at 4° C. with rotation. At the end of the lysate incubation, the beads are rinsed three times in lysis buffer, resuspended in lysis buffer containing 10% glycerol, and frozen. These latex beads are thawed, rinsed three times in assay buffer which is comprised of 40 mM tris pH 7.5, 5 mM magnesium chloride, and suspended in the same buffer. In a Millipore 96-well plate with a 0.65 μm polyvinylidine membrane bottom are added the reaction components: 10-μL c-Src beads, 10 μL of 2.5 mg/mL polyglutamate-tyrosine substrate, 5 μM ATP containing 0.2 μCi labeled ^32 P-ATP, 5 μL DMSO containing inhibitors or as a solvent control, and buffer to make the final volume 125 μL. The reaction is started at room temperature by addition of the ATP and quenched 10 minutes later by the addition of 125 μL of 30% TCA, 0.1 M sodium pyrophosphate for 15 minutes on ice. The plate is then filtered and the wells washed with two 250-μL aliquots of 15% TCA, 0.1 M pyrophosphate. The filters are punched, counted in a liquid scintillation counter, and the data examined for inhibitory activity in comparison to a known inhibitor such as erbstatin. The method is described more fully in J. Med. Chem., 1994;37:598-609.

For another assay, the target named is Protein kinase C (PKC). The assay can be described thus: Protein kinase C (PKC) assay. As to conditions: rat brain preparation. How it is done: as §1
Other Kinases. An assay using the intracellular kinase domains of insulin receptor (INSr) is performed as described for the EGF receptor except that 10 mM manganese chloride is included in the reaction. The PKC assay is performed as previously described by Martiny-Baron, et al., J. Biol. Chem., 1993;268:9194-9197.

Assay [1] deals with T2, PDGFr (mouse PDGF-β receptor tyrosine kinase) (Mus musculus, UniProt P05622).
T2 construct: PCR primers are designed to amplify a fragment of DNA that codes for the intracellular tyrosine kinase domain; made in house; host or cells: Sf9 insect cells (baculovirus), cell lysate
Description: PDGFr tyrosine kinase assay, 32P incorporation into glutamate-tyrosine copolymer. As to conditions: 50 μM ATP. The procedure: (§2) Platelet Derived Growth Factor Receptor (PDGFr) and Fibroblast Growth Factor Receptor (FGFr). Full length cDNAs for the mouse PDGF-β and human FGF-1 (flg) receptor tyrosine kinases were obtained from J. Escobedo and are prepared as described in J. Biol. Chem., 1991;262:1482-1487. PCR primers are designed to amplify a fragment of DNA that codes for the intracellular tyrosine kinase domain. The fragment is melded into a baculovirus vector, cotransfected with AcMNPV DNA, and the recombinant virus isolated. SF9 insect cells are infected with the virus to overexpress the protein, and the cell lysate is used for the assay.
(§3) PDGFr and FGFr. […] Briefly, to each well is added 82.5 μL of incubation buffer containing 25 mM Hepes (pH 7.0), 150 mM NaCl, 0.1% Triton X-100, 0.2 mM PMSF, 0.2 mM sodium vanadate, 10 mM manganese chloride, and 750 μg/mL of poly (4:1) glutamate-tyrosine followed by 2.5 μL of inhibitor and 5 μL of enzyme lysate (7.5 μg/μL FGFR-TK or 6.0 μg/μL PDGFR-TK) to initiate the reaction. Following a 10 minute incubation at 25° C., 10 μL of [γ^32 P]ATP (0.4 μCi plus 50 μM ATP) is added to each well, and samples are incubated for an additional 10 minutes at 25° C. The reaction is terminated by the addition of 100 μL of 30% trichloroacetic acid (TCA) containing 20 mM sodium pyrophosphate and precipitation of material onto glass fiber filter mats (Wallac). […] Nonspecific activity is defined as radioactivity retained on the filters following incubation of samples with buffer alone; (no enzyme). Specific enzymatic activity is defined as total activity (enzyme plus buffer) minus nonspecific activity.

The target in assay [2] is T3, FGFr (human FGF-1 (flg) receptor tyrosine kinase) (Homo sapiens, UniProt P11362).
T3 construct: PCR primers are designed to amplify a fragment of DNA that codes for the intracellular tyrosine kinase domain; made in house; host or cells: Sf9 insect cells (baculovirus), cell lysate
Description: FGFr tyrosine kinase assay, 32P incorporation into glutamate-tyrosine copolymer. As to conditions: 50 μM ATP; read-out: FGFr IC50. The procedure: as §2, §3

Assay [3] has as its target T4, EGFr (Human EGF receptor tyrosine kinase) (Homo sapiens, UniProt P00533).
T4 construct: Human EGF receptor tyrosine kinase is isolated from A431 human epidermoid carcinoma cells; endogenous in cells; host or cells: A431 human epidermoid carcinoma cells (detergent lysate, Q Sepharose fractions)
Description: EGFr tyrosine kinase assay. As to conditions: 10 μM ATP. The procedure: Epidermal Growth Factor Receptor (EGFr). Human EGF receptor tyrosine kinase is isolated from A431 human epidermoid carcinoma cells by the following method. Cells were grown in roller bottles in 50% Dulbecco's Modified Eagle medium and 50% HAM F-12 nutrient media (Gibco) containing 10% fetal calf serum. Approximately 10^9 cells are lysed in two volumes of buffer containing 20 mM 2-(4N-[2-[…]]piperazin-1-yl)ethanesulfonic acid (Hepes), pH 7.4, 5 mM ethylene glycol bis(2-aminoethyl ether) N,N,N',N'-tetraacetic acid (EGTA), 1% Triton X-100, 10% glycerol, 0.1 mM sodium orthovanadate, 5 mM sodium fluoride, 4 mM pyrophosphate, 4 mM benzamide, 1 mM dithiothreitol (DTT), 80 μg/mL aprotinin, 40 μg/mL leupeptin, and 1 mM phenylmethylsulfonyl fluoride (PMSF). After centrifugation at 25,000×g for 10 minutes, the supernatant is applied to a fast Q sepharose column (Pharmacia) and eluted with a linear gradient from 0.1 M NaCl to 0.4 M NaCl in 50 mM Hepes, 10% glycerol, pH 7.4. Enzyme active fractions are pooled, divided into aliquots, and stored at -100° C.
EGFr. Enzyme assays for IC50 determinations are performed in 96-well filter plates (Millipore MADVN6550). The total volume is 0.1 mL containing 20 mM Hepes, pH 7.4, 50 μM sodium vanadate, 40 mM magnesium chloride, 10 μM ATP containing 0.5 μCi of [^32 P]ATP, 20 μg of polyglutamic acid/tyrosine (Sigma Chemical Co., St. Louis, Mo.), 10 ng of EGF receptor tyrosine kinase and appropriate dilutions of inhibitor. All components except the ATP are added to the well, and the plate is incubated with shaking for 10 minutes at 25° C. The reaction is started by adding [^32 P]ATP, and the plate is incubated at 25° C. for 10 minutes. The reaction is terminated by addition of 0.1 mL of 20% trichloroacetic acid (TCA). The plate is kept at 4° C. for at least 15 minutes to allow the substrate to precipitate. The wells are then washed five times with 0.2 mL of 10% TCA, and ^32 P incorporation is determined with a Wallac beta plate counter.

The structures appear in SMILES notation.

T3 sequence (P11362 478-767 limits assumed): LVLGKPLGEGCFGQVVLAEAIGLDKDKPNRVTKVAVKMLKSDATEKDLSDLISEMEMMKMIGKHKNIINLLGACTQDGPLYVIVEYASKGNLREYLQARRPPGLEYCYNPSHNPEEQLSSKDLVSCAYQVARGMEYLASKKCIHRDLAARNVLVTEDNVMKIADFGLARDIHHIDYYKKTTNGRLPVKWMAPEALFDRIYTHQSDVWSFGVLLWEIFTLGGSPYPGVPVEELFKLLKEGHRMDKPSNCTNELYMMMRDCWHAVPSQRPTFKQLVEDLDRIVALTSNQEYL
T2 sequence (P05622 599-961 limits assumed): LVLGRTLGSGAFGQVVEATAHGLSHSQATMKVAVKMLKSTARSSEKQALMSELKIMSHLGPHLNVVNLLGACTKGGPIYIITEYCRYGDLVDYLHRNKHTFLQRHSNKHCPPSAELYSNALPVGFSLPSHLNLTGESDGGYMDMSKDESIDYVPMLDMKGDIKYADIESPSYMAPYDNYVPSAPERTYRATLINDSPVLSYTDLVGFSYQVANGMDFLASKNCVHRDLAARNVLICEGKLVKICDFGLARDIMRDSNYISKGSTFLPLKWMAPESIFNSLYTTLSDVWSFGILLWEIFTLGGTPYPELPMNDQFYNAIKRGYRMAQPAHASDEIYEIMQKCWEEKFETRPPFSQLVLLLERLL
T1 sequence (P12931 whole entry, species assumed): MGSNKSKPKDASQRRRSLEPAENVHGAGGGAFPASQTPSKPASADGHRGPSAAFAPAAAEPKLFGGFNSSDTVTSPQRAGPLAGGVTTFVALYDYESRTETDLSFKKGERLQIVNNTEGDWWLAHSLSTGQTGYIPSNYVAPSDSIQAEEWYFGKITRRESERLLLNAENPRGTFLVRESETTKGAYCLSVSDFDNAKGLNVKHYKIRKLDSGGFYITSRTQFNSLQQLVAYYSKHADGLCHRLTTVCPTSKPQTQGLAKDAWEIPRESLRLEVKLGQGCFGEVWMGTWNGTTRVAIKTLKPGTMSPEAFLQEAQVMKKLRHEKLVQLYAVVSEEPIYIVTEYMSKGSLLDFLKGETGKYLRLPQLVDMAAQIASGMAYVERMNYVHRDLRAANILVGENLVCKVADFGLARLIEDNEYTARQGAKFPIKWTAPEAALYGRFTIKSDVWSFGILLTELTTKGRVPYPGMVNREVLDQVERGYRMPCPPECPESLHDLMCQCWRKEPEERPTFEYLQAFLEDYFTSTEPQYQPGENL
T4 sequence (P00533 25-1210): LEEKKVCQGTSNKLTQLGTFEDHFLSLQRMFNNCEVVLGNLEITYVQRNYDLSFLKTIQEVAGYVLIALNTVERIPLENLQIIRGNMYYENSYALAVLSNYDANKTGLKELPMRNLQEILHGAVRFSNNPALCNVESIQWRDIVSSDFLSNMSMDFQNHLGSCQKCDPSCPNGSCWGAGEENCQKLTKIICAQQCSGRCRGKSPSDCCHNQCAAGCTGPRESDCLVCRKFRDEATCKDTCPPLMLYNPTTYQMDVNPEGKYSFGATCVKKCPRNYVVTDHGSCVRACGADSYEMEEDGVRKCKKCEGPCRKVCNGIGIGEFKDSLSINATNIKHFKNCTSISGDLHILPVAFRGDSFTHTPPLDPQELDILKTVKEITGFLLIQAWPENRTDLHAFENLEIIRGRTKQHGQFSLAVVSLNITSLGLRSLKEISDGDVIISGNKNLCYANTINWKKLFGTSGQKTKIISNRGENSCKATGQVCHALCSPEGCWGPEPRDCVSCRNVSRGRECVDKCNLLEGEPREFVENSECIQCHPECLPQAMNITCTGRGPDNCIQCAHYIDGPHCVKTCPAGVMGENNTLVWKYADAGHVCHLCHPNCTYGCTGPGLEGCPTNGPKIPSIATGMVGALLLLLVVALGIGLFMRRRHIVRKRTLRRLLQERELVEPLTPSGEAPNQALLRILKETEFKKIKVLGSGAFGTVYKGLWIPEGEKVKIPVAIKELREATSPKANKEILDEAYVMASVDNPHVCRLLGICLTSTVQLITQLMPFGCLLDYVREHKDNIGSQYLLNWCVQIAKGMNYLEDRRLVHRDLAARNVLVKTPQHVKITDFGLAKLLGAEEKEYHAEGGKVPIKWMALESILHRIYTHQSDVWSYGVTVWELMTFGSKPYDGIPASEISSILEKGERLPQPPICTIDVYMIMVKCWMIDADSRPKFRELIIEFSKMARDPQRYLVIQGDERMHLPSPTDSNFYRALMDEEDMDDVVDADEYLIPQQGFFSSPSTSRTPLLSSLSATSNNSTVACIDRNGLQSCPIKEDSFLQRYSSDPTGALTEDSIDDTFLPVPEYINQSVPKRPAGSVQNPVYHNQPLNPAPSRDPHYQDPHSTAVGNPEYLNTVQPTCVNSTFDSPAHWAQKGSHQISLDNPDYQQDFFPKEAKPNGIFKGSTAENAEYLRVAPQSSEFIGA

A word on the IC50: it is the concentration that inhibits the measured activity by half. Take `Cn1c(=O)c(-c2c(Cl)cccc2Cl)cc2cnc(N)cc21` [Example A, 7-amino-3-(2,6-dichlorophenyl)-1-methyl-1H-[1,6]naphthyridin-2-one]: the half-maximal inhibitory concentration (IC50) came out at 350 nM against c-Src, 50 µM against Protein kinase C (PKC), 2500 nM in assay [1] and 280 nM in assay [2].
For the compound `CNc1cc2c(cn1)cc(-c1c(Cl)cccc1Cl)c(=O)n2C` [Example B, 3-(2,6-dichlorophenyl)-1-methyl-7-methylamino-1H-[1,6]naphthyridin-2-one], the figures for the 50% inhibitory concentration (IC50) (against c-Src; in assay [1]; in assay [2]) were 420 nM, 3600 nM and 340 nM, respectively.
As to `CCN(CC)CCNc1cc2c(cn1)cc(-c1c(Cl)cccc1Cl)c(=O)n2C` [Example D, 3-(2,6-dichlorophenyl)-7-[2-(diethylamino)ethylamino]-1-methyl-1H-[1,6]naphthyridin-2-one], the results for the IC50 (on c-Src; in assay [1]; in assay [2]) were 13000 nM, 16000 nM and 3700 nM, respectively.
The like results for `CCN(CC)CCCNc1cc2c(cn1)cc(-c1c(Cl)cccc1Cl)c(=O)n2C` [Example E, 3-(2,6-dichlorophenyl)-7-[3-(diethylamino)propylamino]-1-methyl-1H-[1,6]naphthyridin-2-one] were, in that order, 300 nM, 4000 nM and 220 nM.
As for `CCN(CC)CCCCCNc1cc2c(cn1)cc(-c1c(Cl)cccc1Cl)c(=O)n2C` [Example G, 3-(2,6-dichlorophenyl)-7-[5-(diethylamino)pentylamino]-1-methyl-1H-[1,6]naphthyridin-2-one], the IC50 against c-Src amounted to 20 nM; in assay [1] it was 690 nM; in assay [2], 70 nM.
Turning to `CN1CCN(CCCCNc2cc3c(cn2)cc(-c2c(Cl)cccc2Cl)c(=O)n3C)CC1` [Example I, 3-(2,6-dichlorophenyl)-1-methyl-7-[4-(4-methylpiperazin-1-yl)butylamino]-1H-[1,6]naphthyridin-2-one], the IC50 was found to be 40 nM on c-Src and 950 nM in assay [1].
As for `CN1CCN(CCCCCNc2cc3c(cn2)cc(-c2c(Cl)cccc2Cl)c(=O)n3C)CC1` [Example J, 3-(2,6-dichlorophenyl)-1-methyl-7-[5-(4-methylpiperazin-1-yl)pentylamino]-1H-[1,6]naphthyridin-2-one], the IC50 was 30 nM against c-Src and 850 nM in assay [1].
Consider `Cn1c(=O)c(-c2c(Cl)cccc2Cl)cc2cnc(NCCCN3CCOCC3)cc21` [Example K, 3-(2,6-dichlorophenyl)-1-methyl-7-[3-(4-morpholino)propylamino]-1H-[1,6]naphthyridin-2-one], for which the IC50 against c-Src was 360 nM; at Protein kinase C (PKC), more than 50 µM; in assay [1], 4700 nM; in assay [3], less than 50 µM.
In the case of `Cn1c(=O)c(-c2c(Cl)cccc2Cl)cc2cnc(NCCCn3ccnc3)cc21` [Example L, 3-(2,6-dichlorophenyl)-7-[3-(imidazol-1-yl)propylamino]-1-methyl-1H-[1,6]naphthyridin-2-one], the IC50 turned out to be 540 nM on c-Src and 1700 nM in assay [1].
`Cn1c(=O)c(-c2c(Cl)cccc2Cl)cc2cnc(Nc3ccncc3)cc21` [Example N, 3-(2,6-dichlorophenyl)-1-methyl-7-(4-pyridylamino)-1H-[1,6]naphthyridin-2-one]: the IC50 at c-Src stood at 550 nM; in assay [1], 9600 nM; in assay [2], 3300 nM.
The like results for `COc1ccc(Nc2cc3c(cn2)cc(-c2c(Cl)cccc2Cl)c(=O)n3C)cc1` [Example O, 3-(2,6-dichlorophenyl)-7-[(4-methoxyphenyl)amino]-1-methyl-1H-[1,6]naphthyridin-2-one] were, in that order, 1700 nM, 1700 nM and 1200 nM.
Regarding `Cn1c(=O)c(-c2c(Cl)cccc2Cl)cc2cnc(NCCCCN3CCOCC3)cc21` [Example Q, 3-(2,6-dichlorophenyl)-1-methyl-7-[4-(4-morpholino)butylamino]-1H-[1,6]naphthyridin-2-one], the IC50 at c-Src was determined as 50 nM; in assay [1] it was 3100 nM.
Consider `CCN(CC)CCCOc1ccc(Nc2cc3c(cn2)cc(-c2c(Cl)cccc2Cl)c(=O)n3C)cc1` [Example R, 3-(2,6-dichlorophenyl)-7-[(4-(3-(diethylamino)propoxy)phenyl)amino]-1-methyl-1H-[1,6]naphthyridin-2-one], for which the 50% inhibitory concentration (IC50) against c-Src was 30 nM; in assay [1], 370 nM; in assay [2], 180 nM.
As to `CN1CCN(CCCOc2ccc(Nc3cc4c(cn3)cc(-c3c(Cl)cccc3Cl)c(=O)n4C)cc2)CC1` [Example T, 3-(2,6-dichlorophenyl)-1-methyl-7-[(4-(3-(4-methylpiperazin-1-yl)propoxy)phenyl)amino]-1H-[1,6]naphthyridin-2-one], the half-maximal inhibitory concentration (IC50) on c-Src was 30 nM; in assay [1], 370 nM.
As for `CN1CCN(c2ccc(Nc3cc4c(cn3)cc(-c3c(Cl)cccc3Cl)c(=O)n4C)cc2)CC1` [Example U, 3-(2,6-dichlorophenyl)-1-methyl-7-[(4-(4-methylpiperazin-1-yl)phenyl)amino]-1H-[1,6]naphthyridin-2-one], the IC50 at c-Src was 20 nM; in assay [1] it was 260 nM.
